Data reported in patent US9107871B2, “LHRH—antagonists in the treatment of fertility disorders” (ZENTARIS IVP GMBH, priority 1996, dated 2015).
Where a SMILES comes first, the peptide text is derived from it. [ ]: non-standard residue; d: D form. dPhe(4-Cl) = N[C@H](Cc1ccc(Cl)cc1)C(=O)O; d2Nal = N[C@H](Cc1ccc2ccccc2c1)C(=O)O; dCit = NC(=O)NCCC[C@@H](N)C(=O)O; d3Pal = N[C@H](Cc1cccnc1)C(=O)O

Tested on: patients undergoing COS/ART
Experiment: Phase II clinical trial of Cetrorelix in controlled ovarian stimulation/superovulation for assisted reproduction (COS/ART)
Type: in vivo, human
Settings: for premature LH surge: s.c., patients undergoing COS/ART
Protocol: The results of a phase II clinical trial are shown in Table I. A total of 235 patients were treated. […] During multiple dosing, the mean days of Cetrorelix application is 6 days. 25 babies were born by the end of May 1996 (7 following multiple doses; 18 following single/dual doses). […] [table] 238 patients were treated with Cetrorelix by subcutaneous injection of Cetrorelix […]-Lyophilisat. 134 patients were treated with multiple doses and 104 patients with single or dual doses. The multiple doses are 0.25 mg/day or higher. The single dose was 3 mg or higher. […] Multiple doses were applied for 3 to a maximum of 10 days dependent on follicular development.

[1] = multiple dose, dose/day, phase II dose finding

CC(=O)N[C@H](Cc1ccc2ccccc2c1)C(=O)N[C@H](Cc1ccc(Cl)cc1)C(=O)N[C@H](Cc1cccnc1)C(=O)N[C@@H](CO)C(=O)N[C@@H](Cc1ccc(O)cc1)C(=O)N[C@H](CCCNC(N)=O)C(=O)N[C@@H](CC(C)C)C(=O)N[C@@H](CCCNC(=N)N)C(=O)N1CCC[C@H]1C(=O)N[C@H](C)C(N)=O [Cetrorelix] (Ac-[d2Nal][dPhe(4-Cl)][d3Pal]SY[dCit]LRP[dA]-NH2)
premature LH surge (FIG. 1, time variation of hormonal levels) (FIG. 1): absolute prevention of any premature LH surge
pregnancies obtained (number) (all phase II patients, both regimens): 71
babies born (number) (by the end of May 1996, all patients): 25
babies born (number) (by the end of May 1996, following multiple doses): 7
babies born (number) (by the end of May 1996, following single/dual doses): 18
babies born (number) (following multiple doses): 15
babies born (number) (following single/dual doses): 29
pregnancies obtained (number) (multiple dose regimen, of 134 patients): 38
minimal effective dose [1]: 0.25 min. effect. dose mg
no effect dose [1]: 0.10 no effect. dose mg
premature LH surge (multiple doses of 0.25 mg/day or higher): No premature LH surge
premature LH surge (single dose of 3 mg or higher): No premature LH surge
duration of effect to prevent a premature LH surge (single dose regimen (one single injection of 3 mg)): up to 6.5 days
pregnancies obtained (number) (single/dual dosage regimen, of 104 patients): 33
